Consider one compound from patent US12649734B2, “Bioavailable protein disulfide isomerase inhibitors” (THE CLEVELAND CLINIC FOUNDATION, priority 2020, dated 2026).

The target in experiment [1] is T1, PDIA1 (Homo sapiens, UniProt P07237). Briefly: Target validation in cells with biotinylated analogues (streptavidin blot, pull down, LCMS). It is filed as cell-based. To be noted: streptavidin blot and pull down of treated MM1.S cells. On the procedure:
FIGS. 4A-4G provide graphs and images showing that model-based design improves potency and selectivity of protein disulfide isomerase A1 (PDIA1) inhibitors. (A) Ribbon diagram of CCF642-34 docked onto PDIA1. (B) Two-dimensional structure of modified CCF642 pharmacophore, where R represents amino acids tryptophan, tyrosine, phenylalanine, histidine, proline, or alanine. (C) PDIA1/PH4B activity assay was performed in the absence or presence of CCF642 or (D) CCF642-34. In time-dependent inhibition of di-E-GSSG, reduction was monitored for 1 h by the increase in fluorescence, and the relative fluorescence unit was plotted as a function of time. (E-F) The observed rate constant for inhibition, kobs, at each concentration determined from the slope of kinetic data presented in panel C and D. The kobs values are re-plotted against inhibitor concentration and fitted to a hyperbolic equation, kobs=k2[I]/(Ki+[I]), to obtain values for Ki and k2 in GraphPad Prism v8.0.2. The concentration of drug is indicated on each curve, for (E) 642 and (F) CCF642-34. (G) Target validation. […]
Mass spectrometry: Tryptic peptide mixtures were analyzed by online LC-coupled tandem mass spectrometry (LCMS/MS) on an Orbitrap mass spectrometer (Thermo Fisher) as described previously. […] A peak list was created for each analyzed fraction (i.e., gel slice) and individual Sequest searches were performed for each fraction. […]

The target of experiment [2] is T1, PDIA1. Briefly: PDIA1 activity assay, insulin reduction. Also noted: His6 (6xHN, pET6xHN-N vector) (N); made in house; host or cells: Escherichia coli BL21 (DE3) NiCo. It counts as biochemical. To be noted: read-out: inactivation constant, Kinact for PDIA1. On the procedure:
PDI activity: All PDI activity assays were performed using two different substrates, insulin and di-eosin-diglutathione (di-E-GSSG) as described earlier (Vatolin et al., Ibid) with brief modifications. PDIA1 (1 μM) was incubated for 1 h with varying concentrations of PDIA1 inhibitors 642 or 642-34 (0.1, 03, 1, 5, 10, or 20 μM) in 100 mM sodium phosphate pH 7.0, 2 mM EDTA, and 1% DMSO. Bovine insulin (100 μM) and DTT (1 mM) were added to initiate the reaction. Kinetic readings were taken every minute for 2 h at 650 nm absorbance using a BioTek Synergy plate reader (BioTek Instruments, Inc., Winooski, VT, USA). For highly sensitive fluorescence-based assays, di-E-GSSG as a pseudo substrate was utilized to access the activity of PDIA1. Raturi, A.; Mutus, B., Free. Radic. Biol. Med., 43, 62-70 (2007) Known concentrations of recombinant PDIA1 were mixed with 10 mM GSH and incubated at 37° C. for 30 min in 150 mM K2HPO4/KH2PO4 (pH 7.1) buffer solution. PDI inhibitor was added into the mixture and incubated for an additional 30 min at 37° C. […] Synergy H1 plate reader (BioTek, WI, USA) was used for kinetic analysis using excitation at 518 nm, emission at 545 nm, reads of 0.1 sec/well every minute at 25° C. for 1 h. Baseline fluorescence was determined from di-E-GSSG reactions without PDI and GSH. […]

T1 sequence (P07237 18-508): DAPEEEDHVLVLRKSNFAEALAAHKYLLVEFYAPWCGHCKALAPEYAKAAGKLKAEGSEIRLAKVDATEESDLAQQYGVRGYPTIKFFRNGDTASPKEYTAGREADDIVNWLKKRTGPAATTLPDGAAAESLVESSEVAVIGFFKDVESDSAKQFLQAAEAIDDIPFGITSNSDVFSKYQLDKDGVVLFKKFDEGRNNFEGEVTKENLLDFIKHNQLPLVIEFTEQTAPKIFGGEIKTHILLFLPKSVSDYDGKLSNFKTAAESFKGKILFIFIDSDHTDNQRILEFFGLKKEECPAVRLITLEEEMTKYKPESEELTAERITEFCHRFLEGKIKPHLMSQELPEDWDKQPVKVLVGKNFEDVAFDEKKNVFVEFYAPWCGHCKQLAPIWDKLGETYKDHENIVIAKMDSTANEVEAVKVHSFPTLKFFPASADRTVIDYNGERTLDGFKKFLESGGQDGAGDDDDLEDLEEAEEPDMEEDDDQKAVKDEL

Turning to `NC(CC1CNc2ccccc21)C(=O)NCCCOc1ccc(N2C(=O)/C(=C/c3ccc([N+](=O)[O-])s3)SC2=S)cc1` (centres unmarked) [CCF642-34], at PDIA1 [1], the “binding selectivity in MM1.S cells” value is listed as “remarkable selectivity for PDIA1”. Moreover, the KI (inactivation) at PDIA1 [2] was 0.1 ± 0.0085 µM.
